# Assay results: article PMC7429357 (Journal of medicinal chemistry, 2020)
# Where two headings read alike, the source gives them in different places.
# Key:
# NTMT1 [1] = biological target: T1, NTMT1 (Homo sapiens, UniProt Q9BV86); experiment: SAHH-coupled fluorescence assay; type: biochemical; details: for fold decrease in IC50 activity compared to 3: 10 min preincubation; for fold activity decrease compared to respective NAH-GPKRIA compound: 5 vs 1, 6 vs 2
# T1 sequence (Q9BV86 1-223): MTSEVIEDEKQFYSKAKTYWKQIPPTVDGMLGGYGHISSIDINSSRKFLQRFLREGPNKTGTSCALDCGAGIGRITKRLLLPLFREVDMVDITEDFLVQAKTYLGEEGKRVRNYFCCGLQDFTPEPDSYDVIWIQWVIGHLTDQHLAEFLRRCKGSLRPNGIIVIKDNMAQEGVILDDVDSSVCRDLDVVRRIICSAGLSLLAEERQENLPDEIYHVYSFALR
# NTMT1 [2] = details: MALDI-MS based assay; cited from earlier work
# other methyltransferases = details: cited from earlier work
# NTMT1 [3] = details: cited from earlier work
# NTMT1 [4] = biological target: T1, NTMT1
# [5] = biological target: nicotinamide N-methyltransferase (NNMT) (Homo sapiens, UniProt P40261); details: at 100 μM
# [6] = biological target: SET domain-containing protein 7 (SETD7) (Homo sapiens, UniProt Q8WTS6); details: at 100 μM
# [7] = biological target: Trypanosoma brucei protein arginine methyltransferase 7 (TbPRMT7) (Trypanosoma brucei brucei, UniProt Q582G4); experiment: biochemical
# NTMT1 [8] = biological target: T1, NTMT1; experiment: MALDI-MS methylation inhibition assay; type: biochemical; details: 10 min preincubation, 20 min
# [9] = biological target: euchromatic histone-lysine N-methyltransferase 2 (G9a) (Homo sapiens, UniProt Q96KQ7); details: at 100 μM
# euchromatic histone-lysine N-methyltransferase 2 (G9a), sequence (Q96KQ7 whole entry, species assumed): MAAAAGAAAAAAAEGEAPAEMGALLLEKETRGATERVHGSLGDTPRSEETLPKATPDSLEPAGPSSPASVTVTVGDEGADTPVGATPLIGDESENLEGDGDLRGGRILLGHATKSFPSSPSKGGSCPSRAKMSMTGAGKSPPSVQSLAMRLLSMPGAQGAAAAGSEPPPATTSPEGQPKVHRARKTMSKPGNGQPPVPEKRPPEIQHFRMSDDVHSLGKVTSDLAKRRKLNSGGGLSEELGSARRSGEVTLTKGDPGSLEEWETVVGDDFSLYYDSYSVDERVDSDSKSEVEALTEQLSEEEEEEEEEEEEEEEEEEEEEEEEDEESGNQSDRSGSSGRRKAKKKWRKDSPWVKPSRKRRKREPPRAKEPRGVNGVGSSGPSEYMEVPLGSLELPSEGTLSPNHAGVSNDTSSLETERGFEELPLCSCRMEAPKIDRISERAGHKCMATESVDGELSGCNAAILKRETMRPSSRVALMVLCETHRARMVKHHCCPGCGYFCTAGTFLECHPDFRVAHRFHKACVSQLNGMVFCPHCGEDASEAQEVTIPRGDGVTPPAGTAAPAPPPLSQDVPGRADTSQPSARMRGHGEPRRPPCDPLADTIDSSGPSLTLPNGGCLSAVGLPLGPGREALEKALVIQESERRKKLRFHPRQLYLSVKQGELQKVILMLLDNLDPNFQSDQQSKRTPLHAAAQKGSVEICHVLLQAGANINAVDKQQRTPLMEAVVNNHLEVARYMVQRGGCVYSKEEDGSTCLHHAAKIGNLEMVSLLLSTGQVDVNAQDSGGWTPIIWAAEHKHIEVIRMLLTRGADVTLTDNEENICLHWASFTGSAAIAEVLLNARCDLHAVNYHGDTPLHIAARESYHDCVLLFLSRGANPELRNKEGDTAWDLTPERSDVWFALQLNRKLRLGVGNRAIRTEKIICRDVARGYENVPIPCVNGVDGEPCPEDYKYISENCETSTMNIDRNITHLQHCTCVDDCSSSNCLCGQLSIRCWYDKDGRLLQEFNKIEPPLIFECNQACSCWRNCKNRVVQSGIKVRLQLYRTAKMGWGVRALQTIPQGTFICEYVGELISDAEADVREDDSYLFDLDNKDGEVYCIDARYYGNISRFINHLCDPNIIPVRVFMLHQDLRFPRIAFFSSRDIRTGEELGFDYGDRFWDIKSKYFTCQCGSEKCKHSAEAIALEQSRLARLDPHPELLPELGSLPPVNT
# nicotinamide N-methyltransferase (NNMT), sequence (P40261 whole entry, species assumed, the tested form may be a part): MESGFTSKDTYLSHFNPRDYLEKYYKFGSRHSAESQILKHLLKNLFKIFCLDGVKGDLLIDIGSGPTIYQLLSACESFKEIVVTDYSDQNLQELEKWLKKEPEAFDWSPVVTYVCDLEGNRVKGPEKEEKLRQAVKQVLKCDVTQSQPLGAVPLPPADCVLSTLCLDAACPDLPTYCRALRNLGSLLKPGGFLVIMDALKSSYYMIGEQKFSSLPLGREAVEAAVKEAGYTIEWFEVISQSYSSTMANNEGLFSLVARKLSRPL
# SET domain-containing protein 7 (SETD7), sequence (Q8WTS6 whole entry, species assumed, the tested form may be a part): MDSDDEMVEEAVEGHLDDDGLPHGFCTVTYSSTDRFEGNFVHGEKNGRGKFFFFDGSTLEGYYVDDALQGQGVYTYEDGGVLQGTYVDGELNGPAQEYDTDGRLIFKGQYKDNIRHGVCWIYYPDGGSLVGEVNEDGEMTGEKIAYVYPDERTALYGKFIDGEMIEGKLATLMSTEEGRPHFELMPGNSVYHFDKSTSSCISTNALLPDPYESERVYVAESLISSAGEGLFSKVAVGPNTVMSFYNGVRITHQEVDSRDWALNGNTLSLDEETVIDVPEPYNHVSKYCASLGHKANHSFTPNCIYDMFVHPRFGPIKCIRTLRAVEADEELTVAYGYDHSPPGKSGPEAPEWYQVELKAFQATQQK
# Trypanosoma brucei protein arginine methyltransferase 7 (TbPRMT7), sequence (Q582G4 whole entry): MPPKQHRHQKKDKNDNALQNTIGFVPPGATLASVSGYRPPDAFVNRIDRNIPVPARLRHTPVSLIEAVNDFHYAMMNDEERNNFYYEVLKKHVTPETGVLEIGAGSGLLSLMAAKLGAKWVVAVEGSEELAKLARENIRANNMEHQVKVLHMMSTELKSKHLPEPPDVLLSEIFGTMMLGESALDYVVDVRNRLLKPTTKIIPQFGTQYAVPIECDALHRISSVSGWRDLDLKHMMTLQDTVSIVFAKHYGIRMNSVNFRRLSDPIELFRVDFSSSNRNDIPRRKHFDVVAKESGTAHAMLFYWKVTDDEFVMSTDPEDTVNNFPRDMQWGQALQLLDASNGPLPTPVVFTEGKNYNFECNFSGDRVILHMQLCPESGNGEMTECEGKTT
molecule,measurement,setting,value
"CC[C@H](C)[C@H](NC(=O)[C@H](CCCNC(=N)N)NC(=O)[C@H](CCCCN)NC(=O)[C@@H]1CCCN1C(=O)CNCCCN(CC[C@H](N)C(=O)O)C[C@H]1O[C@@H](n2cnc3c(N)ncnc32)[C@H](O)[C@@H]1O)C(=O)N[C@@H](C)C(N)=O [Compound 2, NAH-C3-GPKRIA]",fold decrease in IC50 activity compared to 3,NTMT1 [1],1.5 fold
"N=C(N)NCCC[C@H](NC(=O)[C@H](CCCCN)NC(=O)[C@@H]1CCCN1C(=O)CNCCN(CC[C@H](N)C(=O)O)C[C@H]1O[C@@H](n2cnc3c(N)ncnc32)[C@H](O)[C@@H]1O)C(N)=O [Compound 5, NAH-C2-GPKR]",fold activity decrease compared to respective NAH-GPKRIA compound,NTMT1 [1],< 2 fold
NAH-C3-PPKRIA,IC50,NTMT1 [2],35 ± 2 nM
same,selectivity against other methyltransferases,other methyltransferases,more than 100 fold
"N=C(N)NCCC[C@H](NC(=O)[C@H](CCCCN)NC(=O)[C@@H]1CCCN1C(=O)CNCCCN(CC[C@H](N)C(=O)O)C[C@H]1O[C@@H](n2cnc3c(N)ncnc32)[C@H](O)[C@@H]1O)C(N)=O [Compound 6, NAH-C3-GPKR]",fold activity decrease compared to respective NAH-GPKRIA compound,NTMT1 [1],< 2 fold
"N=C(N)NCCC[C@H](NC(=O)[C@H](CCCCN)NC(=O)[C@@H]1CCCN1C(=O)CNCCCCN(CC[C@H](N)C(=O)O)C[C@H]1O[C@@H](n2cnc3c(N)ncnc32)[C@H](O)[C@@H]1O)C(N)=O [Compound 7, NAH-C4-GPKR]",fold better activity than 5,NTMT1 [1],4 fold
same,fold better activity than 6,NTMT1 [1],2 fold
NAH-C3-GPRRRS,IC50,NTMT1 [3],940 ± 160 nM
"CC[C@H](C)[C@H](NC(=O)[C@H](CCCNC(=N)N)NC(=O)[C@H](CCCCN)NC(=O)[C@@H]1CCCN1C(=O)CNCCN(CC[C@H](N)C(=O)O)C[C@H]1O[C@@H](n2cnc3c(N)ncnc32)[C@H](O)[C@@H]1O)C(=O)N[C@@H](C)C(N)=O [Compound 1, NAH-C2-GPKRIA]",fold decrease in IC50 activity compared to 3,NTMT1 [1],3 fold
same,"fold decrease in Ki, app in comparison with 3",NTMT1 [4],40 fold
"CC[C@H](C)[C@H](NC(=O)[C@H](CCCNC(=N)N)NC(=O)[C@H](CCCCN)NC(=O)[C@@H]1CCCN1C(=O)CNCCCCN(CC[C@H](N)C(=O)O)C[C@H]1O[C@@H](n2cnc3c(N)ncnc32)[C@H](O)[C@@H]1O)C(=O)N[C@@H](C)C(N)=O [Compound 3, NAH-C4-GPKRIA]",inhibitory activity,[5],barely showed inhibitory activity
same,inhibitory activity,[6],barely showed inhibitory activity
same,inhibition at 33 µM,[7],< 50%
same,tri-methylation of GPKRIA peptide,NTMT1 [8]; 50 nM compound,substantially reduced
same,tri-methylation of GPKRIA peptide,NTMT1 [8]; 200 nM compound,barely detected
same,inhibitory activity,[9],barely showed inhibitory activity
